Test results as given in ChEMBL document CHEMBL6134826, “Cross-subclass metallo-β-lactamase inhibitors: From structural and catalytic commonalities guiding design” (Eur J Med Chem, 2025).
pIC50, pKi: −log10 of the molar value.

What was measured:
[1] = Inhibition of Sfh-1 (unknown origin); parameters: species or system Bacteria
[2] = Inhibition of L1 (unknown origin); parameters: species or system Bacteria
[3] = biological target: T1, Metallo-beta-lactamase type 2 (Bacteria, UniProt C7C422); experiment: Binding affinity to NDM-1 (unknown origin) assessed as inhibition constant
[4] = Inhibition of BcII (unknown origin); parameters: species or system Bacteria
[5] = Binding affinity to IMP-1 (unknown origin) assessed as inhibition constant; parameters: species or system Bacteria
[6] = Binding affinity to VIM-2 (unknown origin) assessed as inhibition constant; parameters: species or system Bacteria
[7] = Binding affinity to L1 (unknown origin) assessed as inhibition constant; parameters: species or system Bacteria
[8] = Inhibition of IMP-1 (unknown origin); parameters: species or system Bacteria
[9] = biological target: T1, Metallo-beta-lactamase type 2; experiment: Inhibition of NDM-1 (unknown origin) using nitrocefin as substrate by colorimetric assay
[10] = Binding affinity to Sfh-1 (unknown origin) assessed as inhibition constant; parameters: species or system Bacteria
[11] = Inhibition of CphA (unknown origin); parameters: species or system Bacteria
[12] = Inhibition of ImiS (unknown origin); parameters: species or system Bacteria
[13] = biological target: T1, Metallo-beta-lactamase type 2; experiment: Inhibition of NDM-1 (unknown origin)using fluorescent cephalosporin as substrate preincubated for 10 mins followed by substrate addition by fluorescence based assay
Bacteria [14] = experiment: Inhibition of L1 (unknown origin) at 100 uM relative to control
[15] = biological target: Metallo-beta-lactamase type 2 (Bacteria) (UniProt C7C422); experiment: Inhibition of NDM-1 (unknown origin) at 100 uM relative to control
[16] = Inhibition of recombinant VIM-2 (unknown origin); parameters: species or system Bacteria
[17] = biological target: T1, Metallo-beta-lactamase type 2; experiment: Inhibition of NDM-1 (unknown origin)
Bacteria [18] = experiment: Inhibition of IMP-1 (unknown origin) at 100 uM relative to control
[19] = Binding affinity to BcII (unknown origin) assessed as inhibition constant; parameters: species or system Bacteria

T1 sequence (C7C422 whole entry): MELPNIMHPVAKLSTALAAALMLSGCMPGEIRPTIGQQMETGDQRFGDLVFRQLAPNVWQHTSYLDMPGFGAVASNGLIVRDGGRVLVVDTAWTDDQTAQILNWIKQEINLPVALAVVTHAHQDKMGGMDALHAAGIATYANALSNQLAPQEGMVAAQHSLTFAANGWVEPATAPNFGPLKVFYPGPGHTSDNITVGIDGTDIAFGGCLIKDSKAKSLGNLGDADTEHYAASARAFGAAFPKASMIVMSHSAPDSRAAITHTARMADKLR
Chain of Metallo-beta-lactamase type 2 (Bacteria) (C7C422 whole entry): as above

SMILES: CCOC(=O)[C@]1(CS)N[C@H](C(=O)O)C(C)(C)S1
- pIC50 [1]: 4.00
- pIC50 [2]: 4.55
- pKi [3]: 5.10

SMILES: CCOC(=O)[C@]1(CS)N[C@H](C(=O)O)CS1
- pIC50 [1]: 5.89
- pIC50 [2]: 4.70
- pKi [3]: 6.36

SMILES: CC1(C)[C@H](C(=O)O)N2C(=O)[C@@H](CS)[C@H]2S1(=O)=O
- pIC50 [4]: 5.85
- pIC50 [2]: 7.00

SMILES: CNCc1ccc([C@@H]2C[C@@H](SC3=C(C(=O)O)N4C(=O)[C@H]([C@@H](C)O)[C@H]4[C@H]3C)CN2)cc1
- pKi [5]: 6.74

SMILES: O=C(O)[C@@H]1CS[C@H]2CS[C@H](CS)N21
- pIC50 [1]: 6.59
- pKi [6]: 5.54
- pKi [7]: 4.92

SMILES: O=c1c2ccccc2[se]n1-c1ccccc1 [EBSELEN]
- pIC50 [8]: 5.80
- pIC50 [9]: 7.14

SMILES: C[C@]1(Cn2ccnn2)[C@H](C(=O)O)N2C(=O)C[C@H]2S1(=O)=O [TAZOBACTAM]
- pKi [10]: 4.21
- pKi [6]: 3.89

SMILES: SCC1SCC2Nc3ccccc3N21 (centres undefined)
- pIC50 [1]: 5.85
- pIC50 [2]: 6.21
- pKi [3]: 4.11

SMILES: O=C(O)c1cccc2c1OB(O)C(SCc1ccccc1)C2 (centres undefined)
- pIC50 [2]: 5.30
- pIC50 [11]: 6.30

SMILES: CCN(CC)C(=S)SSC(=S)N(CC)CC [DISULFIRAM]
- pIC50 [8]: 5.54
- pIC50 [9]: 6.89
- pIC50 [12]: 5.44

SMILES: CCN(CC)c1ccc2cc(C(=O)NCCC[Se]C#N)c(=O)oc2c1
- pIC50 [8]: 6.92
- pIC50 [9]: 7.09
- pIC50 [12]: 6.25

SMILES: CC(C)c1cccc2c(-c3ccc(Cn4cncn4)cc3)c(C(=O)O)[nH]c12
- pIC50 [13]: 8.80
- pIC50 [2]: 5.30
- pIC50 [11]: 6.40

SMILES: CC1(C)S[C@H]2CS[C@H](CS)N2[C@@H]1C(=O)O
- pIC50 [1]: 6.44
- pKi [6]: 5.22
- pKi [7]: 4.96

SMILES: O=C(O)C(=O)CBr [BROMOPYRUVATE]
- inhibition (Bacteria [14]): 33.3%
- inhibition [15]: 90.9%
- pIC50 [9]: 5.59

SMILES: NCCN[C@H]1CC[C@H](CC(=O)N[C@H]2Cc3cccc(C(=O)O)c3OB2O)CC1
- pIC50 [2]: < 5.00
- pIC50 [11]: 5.60
- pIC50 [16]: 8.30

SMILES: CC1(C)[C@H](C(=O)O)N2C(=O)[C@H](CS)[C@H]2S1(=O)=O
- pIC50 [4]: 4.92
- pIC50 [2]: 6.52

SMILES: O=C(O)c1cccc2c1OB(O)[C@@H](NC(=O)C1CCCCC1)C2
- pIC50 [11]: 5.35
- pIC50 [17]: 5.69

SMILES: CC(C)c1cccc2c(-c3ccc(CS(C)(=O)=O)c(Cl)c3)c(C(=O)O)[nH]c12
- pIC50 [13]: 8.90
- pIC50 [2]: 7.30
- pIC50 [11]: 5.90

SMILES: O=C(CCn1[se]c2ccccc2c1=O)ON1C(=O)CCC1=O
- pIC50 [8]: 6.28
- pIC50 [9]: 7.35
- pIC50 [12]: 5.12

SMILES: CC(C)c1cccc2c(-c3cc(Cl)cc(Cl)c3)c(C(=O)O)[nH]c12
- pIC50 [2]: 6.30
- pIC50 [11]: 6.20

SMILES: CC(=O)OC1C2CCC(C(=O)O)N2P1(=O)O (centres undefined)
- inhibition (Bacteria [14]): 70%
- inhibition (Bacteria [18]): 70%

SMILES: CCN(CC)c1ccc2c(-c3ccccc3C(=O)OCCn3[se]c4ccccc4c3=O)c3ccc(N(CC)CC)cc3[o+]c2c1
- pIC50 [8]: 6.34
- pIC50 [9]: 7.80
- pIC50 [12]: 5.06

SMILES: C[C@H](NC(=O)CCS)C(=O)O
- pKi [5]: 4.17
- pKi [19]: 5.25
- pKi [7]: 5.19

SMILES: O=C(CCn1[se]c2ccccc2c1=O)Oc1ccc2ccc(=O)oc2c1
- pIC50 [8]: 6.01
- pIC50 [9]: 7.60
- pIC50 [12]: 4.90

SMILES: O=C(N[C@@H](C(=O)O)c1ccc(Cn2cnnn2)s1)[C@@H](S)CCc1ccccc1
- pIC50 [8]: 7.05
- pIC50 [2]: 6.30
